Data on nine compounds can be found in article PMC7567642, “A Fully Integrated Assay Panel for Early Drug Metabolism and Pharmacokinetics Profiling” (Assay and Drug Development Technologies, 2020).

Data set [1] in a line: Automated shake-flask logD7.4 assay (1-octanol/phosphate buffer pH 7.4). It counts as physicochemical.
Procedure: The assay starts with transfer of individual compound solutions into pools of 10 compounds, alongside two pool QCs, using a Hamilton STARplus liquid handling workstation. […] This step combines 4 μL each of 10 mM compound solutions to a total of 48 μL in an intermediate plate (pool QCs are at 5 mM each). These and subsequent transfers as outlined below involve fresh pipetting tips to eliminate risks of cross-contamination.
The next assay step involves transfer of 500 μL octanol from a tray to an empty deep well plate, to which 10 μL of each pool is subsequently transferred and thoroughly mixed by repetitive aspiration and dispensing. An octanol-saturated phosphate buffer at pH 7.4 is then added (500 μL) followed by sealing of the content with a PP-based lid. Vigorous shaking of the content is achieved through vortexing for 30 s and equilibration of compound between the two phases is further established through a 3 h incubation on a plate shaker.
Following equilibration, the deep well plate is centrifuged to ensure separation between phases and the plate is next moved back to the Hamilton platform for sampling of 5 μL from the octanol phase. The sample is placed in a first dilution plate together with 495 μL of an AcN:H2O mix (1:2) containing FA (0.1%) and verapamil as internal standard (IS). The acidified and IS containing AcN solution, which is common for the logD7.4 and Sol assays, is referred to as the IS solution. The content is thoroughly mixed and next serially diluted to four additional plates with 10-fold dilutions to maximize the ability to detect weakly concentrated solutions and afford investigations of linearity in response.
After sampling, the remaining octanol is removed from the deep well plate through careful pipetting, followed by sampling from the aqueous buffer. […]
The plates are next brought to the MS instrumentation (Xevo TQS; Waters) and read out using the established UPLC-MS/MS methods. […]
On the set-up of data set [2]: method as in PMID 19429424. The conditions noted are these: published dried DMSO assays; cited from earlier work.
The conditions of data set [3]: QC control, literature value; cited from earlier work.
Data set [4] can be described thus: Dried DMSO solubility assay (Sol), phosphate buffer pH 7.4. It counts as physicochemical. The conditions noted are these: ATM inhibitor project.
Procedure: Unlike the logD7.4 assay compounds are not pooled, but instead 50 μL of individual DMSO stock solutions are transferred to glass vials kept in a 3D printed rack that facilitates subsequent liquid transfers using a 96-well pipetting head on the Hamilton STARplus platform. There is no pool QC in the Sol workflow, instead this is replaced with the inclusion of three QCs, the positioning of which is randomized for each week. Solvent is evaporated and the dried compounds are resolubilized in 500 μL of aqueous phosphate buffer at pH 7.4.
Individual Stir Stixs are added to each glass vial using a drop dispenser from V&P Scientific, Inc., a rubber mat is used to seal the vials, and samples are then equilibrated under mixing for 20–24 h. […]
The process of centrifugation and transfer is repeated to remove any remaining debris, except that the 20 μL supernatant transfer combines sampling and pooling of 10 samples to a pool plate with 200 μL of an IS solution (same as in logD7.4). […] Finally, sample and standard plates are sealed and read out, analyzed, and qualified as described for the logD7.4 assay. Calculated solubility values (in μM) are exported into our internal database ensuring global availability to users.
Data set [5] deals with Ataxia Telangiectasia Mutated (ATM) kinase (Homo sapiens, UniProt Q13315). The conditions noted are these: ATM inhibitor project.
Ataxia Telangiectasia Mutated (ATM) kinase, sequence (Q13315 whole entry, species assumed, change not shown): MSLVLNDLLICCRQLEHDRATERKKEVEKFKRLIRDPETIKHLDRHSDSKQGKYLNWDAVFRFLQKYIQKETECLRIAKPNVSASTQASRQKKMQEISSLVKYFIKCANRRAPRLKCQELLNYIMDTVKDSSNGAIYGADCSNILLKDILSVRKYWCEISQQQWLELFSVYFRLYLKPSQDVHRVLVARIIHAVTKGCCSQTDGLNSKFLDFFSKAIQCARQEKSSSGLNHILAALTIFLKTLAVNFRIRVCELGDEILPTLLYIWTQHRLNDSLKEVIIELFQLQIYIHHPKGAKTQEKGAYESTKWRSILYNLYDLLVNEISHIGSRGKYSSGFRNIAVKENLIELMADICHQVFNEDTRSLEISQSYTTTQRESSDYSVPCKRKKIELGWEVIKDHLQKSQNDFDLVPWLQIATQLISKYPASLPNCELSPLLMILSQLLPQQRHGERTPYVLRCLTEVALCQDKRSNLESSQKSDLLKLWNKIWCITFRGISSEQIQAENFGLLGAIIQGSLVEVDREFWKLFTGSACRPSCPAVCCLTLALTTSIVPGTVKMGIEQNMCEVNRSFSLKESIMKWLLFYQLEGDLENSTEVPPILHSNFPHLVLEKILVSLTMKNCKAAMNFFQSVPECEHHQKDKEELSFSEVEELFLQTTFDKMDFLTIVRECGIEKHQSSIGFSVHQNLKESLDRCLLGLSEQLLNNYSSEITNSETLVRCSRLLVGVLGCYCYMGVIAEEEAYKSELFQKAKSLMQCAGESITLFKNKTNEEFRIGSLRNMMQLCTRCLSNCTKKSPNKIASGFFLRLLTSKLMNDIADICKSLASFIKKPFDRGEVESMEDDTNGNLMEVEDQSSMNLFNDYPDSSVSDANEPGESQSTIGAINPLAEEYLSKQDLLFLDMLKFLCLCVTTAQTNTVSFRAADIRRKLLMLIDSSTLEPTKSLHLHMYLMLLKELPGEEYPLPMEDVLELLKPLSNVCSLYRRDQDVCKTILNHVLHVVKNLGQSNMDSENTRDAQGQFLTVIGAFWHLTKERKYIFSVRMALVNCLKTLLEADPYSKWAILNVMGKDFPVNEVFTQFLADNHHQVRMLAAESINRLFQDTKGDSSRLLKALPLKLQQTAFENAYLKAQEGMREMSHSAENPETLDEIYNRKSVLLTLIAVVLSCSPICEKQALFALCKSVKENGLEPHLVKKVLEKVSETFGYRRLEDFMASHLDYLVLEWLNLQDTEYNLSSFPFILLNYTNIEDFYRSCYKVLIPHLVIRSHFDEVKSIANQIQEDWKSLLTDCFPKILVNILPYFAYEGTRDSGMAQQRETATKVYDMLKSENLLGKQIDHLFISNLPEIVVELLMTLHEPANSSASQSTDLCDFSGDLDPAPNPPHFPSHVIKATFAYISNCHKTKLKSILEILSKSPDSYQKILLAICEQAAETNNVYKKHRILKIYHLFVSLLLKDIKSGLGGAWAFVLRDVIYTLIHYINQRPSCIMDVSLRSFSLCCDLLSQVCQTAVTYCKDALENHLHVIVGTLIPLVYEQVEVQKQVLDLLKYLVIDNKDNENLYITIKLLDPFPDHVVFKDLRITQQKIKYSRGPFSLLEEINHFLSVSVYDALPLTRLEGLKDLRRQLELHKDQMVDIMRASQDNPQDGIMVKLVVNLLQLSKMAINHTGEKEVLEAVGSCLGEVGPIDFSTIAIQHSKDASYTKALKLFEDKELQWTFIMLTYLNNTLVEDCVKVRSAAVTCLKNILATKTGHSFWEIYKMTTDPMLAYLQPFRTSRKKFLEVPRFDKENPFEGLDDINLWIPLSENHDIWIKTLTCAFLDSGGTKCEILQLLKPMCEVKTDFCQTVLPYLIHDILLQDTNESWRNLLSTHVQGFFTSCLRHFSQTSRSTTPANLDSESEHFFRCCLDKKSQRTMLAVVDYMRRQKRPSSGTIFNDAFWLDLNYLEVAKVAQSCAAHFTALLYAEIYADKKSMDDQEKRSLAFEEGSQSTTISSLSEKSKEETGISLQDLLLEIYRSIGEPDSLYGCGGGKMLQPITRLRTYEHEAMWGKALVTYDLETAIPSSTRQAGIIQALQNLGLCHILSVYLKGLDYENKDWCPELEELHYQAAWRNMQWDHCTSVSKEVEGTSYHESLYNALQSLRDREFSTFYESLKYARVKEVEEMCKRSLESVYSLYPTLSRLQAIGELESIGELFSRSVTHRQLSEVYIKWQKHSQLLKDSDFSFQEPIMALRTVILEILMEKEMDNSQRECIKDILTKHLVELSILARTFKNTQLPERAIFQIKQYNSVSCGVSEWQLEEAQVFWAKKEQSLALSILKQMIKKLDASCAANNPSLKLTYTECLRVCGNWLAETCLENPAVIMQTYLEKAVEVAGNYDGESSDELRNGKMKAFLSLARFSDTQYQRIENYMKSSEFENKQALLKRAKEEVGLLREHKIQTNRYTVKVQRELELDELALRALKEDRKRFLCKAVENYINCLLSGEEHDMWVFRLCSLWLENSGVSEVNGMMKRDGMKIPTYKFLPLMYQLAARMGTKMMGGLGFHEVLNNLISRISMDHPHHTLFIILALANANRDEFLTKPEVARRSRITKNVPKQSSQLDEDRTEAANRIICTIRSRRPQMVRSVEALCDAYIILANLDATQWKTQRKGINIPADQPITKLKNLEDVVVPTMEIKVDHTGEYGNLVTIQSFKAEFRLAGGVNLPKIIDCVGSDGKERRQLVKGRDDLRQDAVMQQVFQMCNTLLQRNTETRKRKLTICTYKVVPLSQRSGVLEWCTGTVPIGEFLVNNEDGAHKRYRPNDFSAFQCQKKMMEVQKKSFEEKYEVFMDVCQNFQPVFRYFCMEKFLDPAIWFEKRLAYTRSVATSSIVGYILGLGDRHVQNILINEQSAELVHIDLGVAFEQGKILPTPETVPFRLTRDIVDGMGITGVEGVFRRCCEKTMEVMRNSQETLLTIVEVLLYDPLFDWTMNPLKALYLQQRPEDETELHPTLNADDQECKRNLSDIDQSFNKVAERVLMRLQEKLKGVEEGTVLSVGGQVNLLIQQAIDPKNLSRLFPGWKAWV
For a further data set, the system named is human plasma. The conditions noted are these: cited from earlier work.

The structures appear in SMILES notation. In brackets after ≈: the same amount, converted by molar mass. Like-named read-outs stand apart in the source and are kept apart here.

As a reminder, the logD is the decadic logarithm of the distribution of all forms, ionised or not, between an organic phase and buffer at a given pH. Read a high logD as a more lipophilic compound. In data set [1] (pH 7.4, ATM inhibitor project, DMPK Wave 1 panel), `CC(C)n1c(=O)n(C)c2cnc3cc(F)c(-c4ccc(OCCCN5CCCCC5)nc4)cc3c21` yielded a log distribution coefficient (logD) at 3 h of 2.7. As usually defined, the solubility is the concentration that dissolves in the medium under given conditions. With `COc1ccc(CCN2CCC(Nc3nc4ccccc4n3Cc3ccc(F)cc3)CC2)cc1` [astemizole, Astemizole], the solubility in data set [2] was 2.9 µM (≈ 1.33 µg/mL). `CN(C)CCCN1c2ccccc2Sc2ccc(Cl)cc21` [chlorpromazine, Chlorpromazine]: the solubility in data set [2] is 450 µM (≈ 143 µg/mL). As to `CN(C)CCC=C1c2ccccc2C=Cc2ccccc21` [cyclobenzaprine, Cyclobenzaprine], the logD7.4 in data set [3] is on record as 2.8. With `CCC(CC)CNc1c(C(N)=O)cnc2ccc(C#N)cc12` [initial starting point], the logD7.4 in data set [1] (ATM inhibitor project, DMPK Wave 1 panel) was 3.5. Also, the “solubility (in words)” value in data set [4] is recorded as “low μM solubility”. In addition, the “potency on the target protein (in words)” value in data set [5] was “μM potency”. `COCCc1ccc(OCC(O)CNC(C)C)cc1` (centres unmarked) [metoprolol, Metoprolol]: in the data set on human plasma, the “fu (fraction unbound)” value is recorded as about 85%. In turn, `COC(=O)C1=C(C)NC(C)=C(C(=O)OCCN(C)Cc2ccccc2)C1c1cccc([N+](=O)[O-])c1` (centres unmarked) [nicardipine, Nicardipine] displayed a log distribution coefficient (logD) at 3 h in data set [1] (1-octanol/phosphate buffer pH 7.4, pH 7.4, QC control, in-house data) of 4.5. With `O=C1NC(=O)C(c2ccccc2)(c2ccccc2)N1` [phenytoin, Phenytoin], the solubility in data set [2] was 86 µM (≈ 21.7 µg/mL).

Take `CC(=O)CC(c1ccccc1)c1c(O)c2ccccc2oc1=O` (centres unmarked) [warfarin, Warfarin]: the “fu (fraction unbound)” value in the data set on human plasma was about 1%.
